# Like-named read-outs stand apart in the source and are kept apart here. Starred links: 1 amine or outer side, 2 acyl side, 3 side chain; linkers in the order of their positions; H or OH if unused. Positions of bridges follow the written chain, without caps; N, C: chain ends. Non-standard residues stand in square brackets, D forms with d. Residues, ends and D or L forms follow the SMILES beside them. ξ: configuration not given here. Phe(3-Me) = Cc1cccc(C[C@H](N)C(=O)O)c1; γGlu = O=C(O)[C@H](CCC(=O)[*:2])N[*:1]; 2Nal = N[C@@H](Cc1ccc2ccccc2c1)C(=O)O; βAsp = O=C(O)[C@H](CC(=O)[*:2])N[*:1]; Pro(4ξ-F) = O=C(O)[C@@H]1CC(F)CN1; Ahp(2) = CCCCC[C@H](N)C(=O)O; NMeNle = CCCC[C@H](NC)C(=O)O; Tle = CC(C)(C)[C@H](N)C(=O)O; NMeV = CN[C@H](C(=O)O)C(C)C; NMeS = CN[C@@H](CO)C(=O)O; NHexGly = CCCCCCNCC(=O)O; Nle = CCCC[C@H](N)C(=O)O; Orn = NCCC[C@H](N)C(=O)O; Aun = NCCCCCCCCCCC(=O)O; Dap = NC[C@H](N)C(=O)O; AEEA = NCCOCCOCC(=O)O; NBuGly = CCCCNCC(=O)O; ξP = O=C(O)C1CCCN1
# Target: T1, mouse VISTA (mVISTA) (Mus musculus, UniProt Q9D659)
# T1 construct: expressed in transfected cells; host or cells: Human embryonic kidney 293T cells
# T1 sequence (Q9D659 33-308): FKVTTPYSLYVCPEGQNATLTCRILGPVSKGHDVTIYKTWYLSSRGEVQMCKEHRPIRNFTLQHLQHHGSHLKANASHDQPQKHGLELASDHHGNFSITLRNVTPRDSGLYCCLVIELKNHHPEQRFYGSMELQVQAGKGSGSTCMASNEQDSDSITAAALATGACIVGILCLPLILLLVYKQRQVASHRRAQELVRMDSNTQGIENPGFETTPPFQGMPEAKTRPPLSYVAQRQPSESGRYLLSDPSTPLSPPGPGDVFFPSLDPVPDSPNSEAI
# Assay: Cell-Based Binding High-Content Assay For mVISTA (HC CBA mVISTA)
# Summary of the method: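 Read-out: Alexa 647–streptavidin signal imaged on fixed, Hoechst-stained mVISTA-293T cells, with IC50 taken from a four-parameter logistic curve. Compounds competed with 2 nM biotinylated peptide for 30 min at room temperature, tested under both no-wash and wash (1 h compound, media exchange, 1 h) formats.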
# [1] = the 19th table, scaffold drawing 22, read-out: HC CBA mVISTA IC50
# [2] = cell-based binding high-content assay, mVISTA, the 16th table, read-out: HC CBA mVISTA IC50
IC50 (read-out: HC CBA mVISTA IC50) [nM],Compound,further results
28.4,CCCCCCN1CC(=O)N[C@@H](Cc2ccc(O)cc2)C(=O)N[C@@H](CCCC)C(=O)N[C@@H](CC(N)=O)C(=O)N[C@@H](CCCNC(=N)N)C(=O)N(C)[C@@H](CCCC)C(=O)N[C@@H](CCCCC)C(=O)N2CC(F)C[C@H]2C(=O)N[C@@H](C(C)C)C(=O)N[C@@H](CO)C(=O)N[C@H](C(=O)N[C@@H](CC(=O)NCCOCCOCC(=O)NCCCCCCCCCCC(=O)O)C(=O)O)CSCC(=O)N[C@@H](Cc2ccccc2)C(=O)N[C@@H](Cc2c[nH]c3ccccc23)C(=O)N[C@@H](CC(=O)O)C1=O (some centres unmarked) [Example 2196] ({CH2CO}-FWD[NHexGly]Y[Nle]NR[NMeNle][Ahp(2)][Pro(4ξ-F)]VSC[βAsp][AEEA][Aun]-OH; thioether N-14),
19.6,CCCCCCN1CC(=O)N[C@@H](Cc2ccc(O)cc2)C(=O)N[C@@H](CCCC)C(=O)N[C@@H](CC(N)=O)C(=O)N[C@@H](CCCNC(=N)N)C(=O)N(C)[C@@H](CCCC)C(=O)N[C@@H](CCCCC)C(=O)N2CCCC2C(=O)N[C@@H](C(C)C)C(=O)N[C@@H](CC(=O)O)C(=O)N[C@H](C(=O)NCC(=O)N[C@@H](CCC(=O)NCCOCCOCC(=O)N[C@@H](CC(=O)O)C(=O)NCCOCCOCC(=O)NCCCCCCCCCCC(=O)O)C(=O)O)CSCC(=O)N[C@@H](Cc2ccc3ccccc3c2)C(=O)N[C@@H](Cc2c[nH]c3ccccc23)C(=O)N[C@@H](CC(=O)O)C1=O (some centres unmarked) [compound 2125] ({CH2CO}-[2Nal]WD[NHexGly]Y[Nle]NR[NMeNle][Ahp(2)][ξP]VDCG[γGlu][AEEA]D[AEEA][Aun]-OH; thioether N-14),
,CCCCCCN1CC(=O)N[C@@H](Cc2ccc(O)cc2)C(=O)N[C@@H](C(C)C)C(=O)NCC(=O)N[C@@H](CCCNC(=N)N)C(=O)N[C@@H](CC(C)C)C(=O)N[C@@H](CCCCC)C(=O)N2CCC[C@H]2C(=O)N[C@@H](C(C)C)C(=O)N2CCC[C@H]2C(=O)N[C@H](C(=O)NCC(=O)O)CSCC(=O)N[C@@H](Cc2ccccc2)C(=O)N[C@@H](Cc2ccc(O)cc2)C(=O)N[C@@H](CC(=O)O)C1=O [Example 1109] ({CH2CO}-FYD[NHexGly]YVGRL[Ahp(2)]PVPCG-OH; thioether N-14),"IC50 (293T cells expressing mouse VISTA, competition with biotinylated peptide (2 nM), read-out: HC CBA mVISTA IC50): 39.1 nM"
,CCCCCCN1CC(=O)N[C@@H](Cc2ccc(O)cc2)C(=O)N[C@@H](CC(C)C)C(=O)N[C@@H](CC(N)=O)C(=O)N[C@@H](CCCNC(=N)N)C(=O)N[C@@H](CC(C)C)C(=O)N[C@@H](CCCCC)C(=O)N2CCC[C@H]2C(=O)N[C@@H](C(C)C)C(=O)N[C@@H](C(C)C)C(=O)N[C@H](C(=O)NCC(=O)O)CSCC(=O)N[C@@H](Cc2cccc(C)c2)C(=O)N[C@@H](Cc2ccc(O)cc2)C(=O)N[C@@H](CC(=O)O)C1=O [compound 1432] ({CH2CO}-[Phe(3-Me)]YD[NHexGly]YLNRL[Ahp(2)]PVVCG-OH; thioether N-14),IC50 [1]: 3 nM
,CCCCCCN1CC(=O)N[C@@H](Cc2ccc(O)cc2)C(=O)N[C@@H](C)C(=O)N[C@@H](CC(N)=O)C(=O)N[C@@H](CCCNC(=N)N)C(=O)N(C)[C@@H](CCCC)C(=O)N[C@@H](CCCCC)C(=O)N2CCC[C@H]2C(=O)N[C@@H](C(C)(C)C)C(=O)N[C@@H](CC(=O)O)C(=O)N[C@H](C(=O)N[C@@H](CC(=O)NCCOCCOCC(=O)N[C@@H](CC(=O)O)C(=O)NCCOCCOCC(=O)NCCCCCCCCCCC(=O)O)C(=O)O)CSCC(=O)N[C@@H](Cc2ccccc2)C(=O)N[C@@H](Cc2ccc(O)cc2)C(=O)N[C@@H](CC(=O)O)C1=O [compound 2096] ({CH2CO}-FYD[NHexGly]YANR[NMeNle][Ahp(2)]P[Tle]DC[βAsp][AEEA]D[AEEA][Aun]-OH; thioether N-14),"IC50 (cell-based binding high-content assay, mVISTA, read-out: HC CBA miPrISTA IC50): 20 nM"
27.8,CCCCCCN1CC(=O)N[C@@H](Cc2ccc(O)cc2)C(=O)N[C@@H](CCCC)C(=O)N[C@@H](CC(N)=O)C(=O)N[C@@H](CCCNC(=N)N)C(=O)N(C)[C@@H](CO)C(=O)N[C@@H](CCCCC)C(=O)N2CCC[C@H]2C(=O)N[C@@H](C(C)(C)C)C(=O)N[C@@H](CO)C(=O)N[C@H](C(=O)NCCOCCOCC(=O)N[C@@H](CCC(=O)NCCOCCOCC(=O)NCCCCCCCCCCC(=O)O)C(=O)O)CSCC(=O)N[C@@H](Cc2ccccc2)C(=O)N[C@@H](Cc2c[nH]c3ccccc23)C(=O)N[C@@H](CC(=O)O)C1=O [compound 2245] ({CH2CO}-FWD[NHexGly]Y[Nle]NR[NMeS][Ahp(2)]P[Tle]SC[AEEA][γGlu][AEEA][Aun]-OH; thioether N-14),
24.7,CCCCCCN1CC(=O)N[C@@H](Cc2ccc(O)cc2)C(=O)N[C@@H](CC(C)C)C(=O)N[C@@H](CC(N)=O)C(=O)N[C@@H](CCCNC(=N)N)C(=O)N(C)[C@@H](CO)C(=O)N[C@@H](CCCCC)C(=O)N2CCC[C@H]2C(=O)N[C@@H](C(C)(C)C)C(=O)N[C@@H](CC(=O)O)C(=O)N[C@H](C(=O)NCCOCCOCC(=O)N[C@@H](CCC(=O)NCCOCCOCC(=O)NCCCCCCCCCCC(=O)O)C(=O)O)CSCC(=O)N[C@@H](Cc2ccccc2)C(=O)N[C@@H](Cc2c[nH]c3ccccc23)C(=O)N[C@@H](CC(=O)O)C1=O [compound 2264] ({CH2CO}-FWD[NHexGly]YLNR[NMeS][Ahp(2)]P[Tle]DC[AEEA][γGlu][AEEA][Aun]-OH; thioether N-14),
,CCCCCCN1CC(=O)N[C@@H](Cc2ccc(O)cc2)C(=O)N[C@@H](CCCCN)C(=O)NCC(=O)N[C@@H](CCCN)C(=O)N[C@@H](CC(C)C)C(=O)N[C@@H](CCCCC)C(=O)N2CCC[C@H]2C(=O)N[C@@H](C(C)C)C(=O)N[C@@H](CO)C(=O)N[C@H](C(=O)NCC(=O)O)CSCC(=O)N[C@@H](Cc2ccc3ccccc3c2)C(=O)N[C@@H](Cc2ccc(O)cc2)C(=O)N[C@@H](CC(=O)O)C1=O [Ex 1288] ({CH2CO}-[2Nal]YD[NHexGly]YKG[Orn]L[Ahp(2)]PVSCG-OH; thioether N-14),IC50 [2]: 16.7 nM
,CCCCCCN1CC(=O)N[C@@H](Cc2ccc(O)cc2)C(=O)N[C@@H](CCCC)C(=O)N[C@@H](CC(N)=O)C(=O)N[C@@H](CCCNC(=N)N)C(=O)N(C)[C@@H](CCCC)C(=O)N[C@@H](CCCCC)C(=O)N2CCC[C@H]2C(=O)N[C@@H](C(C)(C)C)C(=O)N[C@@H](CC(=O)O)C(=O)N[C@H](C(=O)N[C@@H](CN)C(=O)NCCOCCOCC(=O)NCCCCCCCCCCC(=O)O)CSCC(=O)N[C@@H](Cc2ccccc2)C(=O)N[C@@H](Cc2c[nH]c3ccccc23)C(=O)N[C@@H](CC(=O)O)C1=O [Example 2339] ({CH2CO}-FWD[NHexGly]Y[Nle]NR[NMeNle][Ahp(2)]P[Tle]DC[Dap][AEEA][Aun]-OH; thioether N-14),"IC50 (cell-based binding high-content assay, read-out: HC CBA mVISTA IC50): 26.1 nM"
,CCCCC[C@@H]1NC(=O)[C@H](CC(C)C)NC(=O)[C@H](CCCNC(=N)N)NC(=O)[C@H](CC(N)=O)NC(=O)[C@H](CCCC)NC(=O)[C@H](Cc2ccc(O)cc2)NC(=O)CN(CCCC)C(=O)[C@H](CC(=O)O)NC(=O)[C@H](Cc2ccc(O)cc2)NC(=O)[C@H](Cc2ccc3ccccc3c2)NC(=O)CSC[C@@H](C(=O)NCC(N)=O)NC(=O)[C@H](CC(=O)O)NC(=O)[C@H](C(C)C)NC(=O)[C@@H]2CCCN2C1=O [Ex 1271] ({CH2CO}-[2Nal]YD[NBuGly]Y[Nle]NRL[Ahp(2)]PVDCG-NH2; thioether N-14),IC50 [2]: 8 nM
5.2,CCCCCCN1CC(=O)N[C@@H](Cc2ccc(O)cc2)C(=O)N[C@@H](CCCC)C(=O)N[C@@H](CC(N)=O)C(=O)N[C@@H](CCCNC(=N)N)C(=O)N[C@@H](CC(C)C)C(=O)N[C@@H](CCCCC)C(=O)N2CCC[C@H]2C(=O)N[C@@H](C(C)C)C(=O)N[C@@H](CC(=O)O)C(=O)N[C@H](C(=O)NCC(=O)O)CSCC(=O)N[C@@H](Cc2ccccc2)C(=O)N[C@@H](Cc2c[nH]c3ccccc23)C(=O)N[C@@H](CC(=O)O)C1=O [Example 1361] ({CH2CO}-FWD[NHexGly]Y[Nle]NRL[Ahp(2)]PVDCG-OH; thioether N-14),
34.4,CCCCCCN1CC(=O)N[C@@H](Cc2ccc(O)cc2)C(=O)N[C@@H](CC(C)C)C(=O)N[C@@H](CC(N)=O)C(=O)N[C@@H](CCCNC(=N)N)C(=O)N(C)[C@@H](C(C)C)C(=O)N[C@@H](CCCCC)C(=O)N2CCC[C@H]2C(=O)N[C@@H](C(C)(C)C)C(=O)N[C@@H](CO)C(=O)N[C@H](C(=O)NCCOCCOCC(=O)N[C@@H](CCC(=O)NCCOCCOCC(=O)NCCCCCCCCCCC(=O)O)C(=O)O)CSCC(=O)N[C@@H](Cc2ccccc2)C(=O)N[C@@H](Cc2c[nH]c3ccccc23)C(=O)N[C@@H](CC(=O)O)C1=O [compound 2272] ({CH2CO}-FWD[NHexGly]YLNR[NMeV][Ahp(2)]P[Tle]SC[AEEA][γGlu][AEEA][Aun]-OH; thioether N-14),
20.2,CCCCCCN1CC(=O)N[C@@H](Cc2ccc(O)cc2)C(=O)N[C@@H](CCCC)C(=O)N[C@@H](CC(=O)O)C(=O)N[C@@H](CCCN)C(=O)N(C)[C@@H](CCCC)C(=O)N[C@@H](CCCCC)C(=O)N2CCC[C@H]2C(=O)N[C@@H](C(C)(C)C)C(=O)N[C@@H](CO)C(=O)N[C@H](C(=O)N[C@@H](CC(N)=O)C(=O)O)CSCC(=O)N[C@@H](Cc2ccccc2)C(=O)N[C@@H](Cc2c[nH]c3ccccc23)C(=O)N[C@@H](CC(=O)O)C1=O [Example 1401] ({CH2CO}-FWD[NHexGly]Y[Nle]D[Orn][NMeNle][Ahp(2)]P[Tle]SCN-OH; thioether N-14),
,CCCCCCN1CC(=O)N[C@@H](Cc2ccc(O)cc2)C(=O)N[C@@H](CCCC)C(=O)NCC(=O)N[C@@H](CCCNC(=N)N)C(=O)N[C@@H](CC(C)C)C(=O)N[C@@H](CCCCC)C(=O)N2CCC[C@H]2C(=O)N[C@@H](C(C)C)C(=O)N[C@@H](CC(=O)O)C(=O)N[C@H](C(=O)N[C@@H](CO)C(=O)O)CSCC(=O)N[C@@H](Cc2cccc(C)c2)C(=O)N[C@@H](Cc2c[nH]c3ccccc23)C(=O)N[C@@H](CC(=O)O)C1=O [compound 1425] ({CH2CO}-[Phe(3-Me)]WD[NHexGly]Y[Nle]GRL[Ahp(2)]PVDCS-OH; thioether N-14),IC50 [1]: 13.4 nM

# Source: US20240218022A1, “ANTI-VISTA MACROCYCLIC PEPTIDES AND COMPOSITIONS” (BRISTOL-MYERS SQUIBB COMPANY, priority 2022, published 2024)
